Test results as given in US20070265335A1, “POLYMORPHS OF 5-CYCLOPROPYL-2-(4-FLUOROPHENYL)-6-[(2-HYDROXYETHYL)(METHYLSUFONYL)AMINO]-N-METHYL-1-BENZOFURAN-3-CARBOXAMIDE AND METHODS OF MAKING THE SAME” (WYETH, priority 2005, published 2007).

Assays:
hepatitis C virus = conditions: as disclosed in U.S. Patent Application Publication No. 2004-0162318; cited from earlier work
[1] = hygroscopicity on exposure to air; format: physicochemical; conditions: exposed to air for a period of about 1 week
Description: (§1) The first embodiment of the present invention is directed to a substantially pure polymorphic form A of 5-cyclopropyl-2-(4-fluorophenyl)-6-[(2-hydroxyethyl)(methylsulfonyl)amino]-N-methyl-1-benzofuran-3-carboxamide. The terms “polymorphic form”, “crystal modification”, “polymorph”, and “crystalline form” are used interchangeably herein. As used herein, the terms “isolated” and/or “substantially pure” mean more than 50% of the crystalline 5-cyclopropyl-2-(4-fluorophenyl)-6-[(2-hydroxyethyl)(methylsulfonyl)amino]-N-methyl-1-benzofuran-3-carboxamide or salt thereof is present in the form described herein and preferably at least 70%, more preferably at least 80%, and most preferably at least 90% of the crystalline form described herein is present. […] The peaks shown therein include: 8.4°, 9.0°, 9.8°, 10.1°, 12.6°, 12.9°, 13.2°, 13.4°, 15.9°, 16.4°, 16.8°, 17.4°, 17.9°, 18.4°, 18.5°, 19.0°, 19.2°, 19.7°, 19.8°, 20.0°, 20.2°, 20.5°, 21.0°, 21.7°, 22.2°, 22.6°, 23.6°, 24.0°, 24.5°, 24.7°, 24.9°, 25.3°, 25.9°, 26.0°, 26.5°, 26.9°, 27.3°, 27.6°, 28.1°, 28.7°, […], 30.0°, 30.7°, 31.0°, 31.9°, 32.1°, 32.5°, 33.6°, 34.4°, 34.8°, 35.1°, 35.6°, 36.7°, 36.9°, 37.5°, 38.4°, 38.8°, 39.2° and 39.6° (2θ degrees); one of ordinary skill in the art will readily understand that an about 0.1° to about 0.2° variation for peak positions is typical. […]

settling from suspension = format: physicochemical
Description: as §1

[2] = thermodynamic stability of the crystalline form; format: physicochemical; conditions: as indicated by its high melting point of about 175° C.
Description: as §1

Structure (SMILES)	inhibition of the hepatitis C virus (hepatitis C virus)	hygroscopicity [1]	settling from suspension (settling from suspension)	thermodynamic stability of polymorph [2]
CNC(=O)c1c(-c2ccc(F)cc2)oc2cc(N(CCO)S(C)(=O)=O)c(C3CC3)cc12 [5-cyclopropyl-2-(4-fluorophenyl)-6-[(2-hydroxyethyl)(methylsulfonyl)amino]-N-methyl-1-benzofuran-3-carboxamide]	potent inhibitor			
CNC(=O)c1c(-c2ccc(F)cc2)oc2cc(N(CCO)S(C)(=O)=O)c(C3CC3)cc12 [form A, 5-cyclopropyl-2-(4-fluorophenyl)-6-[(2-hydroxyethyl)(methylsulfonyl)amino]-N-methyl-1-benzofuran-3-carboxamide]		non-hygroscopic	tends to settle quickly from suspension	thermodynamically favored stable form
CNC(=O)c1c(-c2ccc(F)cc2)oc2cc(N(CCO)S(C)(=O)=O)c(C3CC3)cc12 [form B, 5-cyclopropyl-2-(4-fluorophenyl)-6-[(2-hydroxyethyl)(methylsulfonyl)amino]-N-methyl-1-benzofuran-3-carboxamide]			tends not to settle quickly from suspension	
